According to patent US11548913B2, “Therapeutic compositions including peptides and uses thereof” (Stealth BioTherapeutics Inc., priority 2015, dated 2023):
Entries after “also recorded” stand apart in the source; their conditions may differ.

Key:
[1] = test system: excised rat hearts; test: Modified Langendorff rat heart model, peptide pre-treatment before ischemia/reperfusion (Example 2); details: hearts bathed 2 hours in 1 μM peptide before 20 min ischemia and 2 hours reperfusion; vs SBT-46, SBT-102 and controls; anticipated
Method: The Langendorff rodent heart model is widely employed in studies of myocardial function and responses to injury (e.g., ischemia). For whole-heart studies, male Sprague-Dawley rats (7-9 weeks old) are injected with pentobarbital (35 mg/kg, ip injection) and hearts are excised with midline thoracotomy. The aortas are secured around a cannula of a modified Langendorff apparatus and retrogradely perfused (perfusion pressure of 75 mm Hg) with a modified Krebs-Henseleit buffer containing (in mM): 118 NaCl, 24 NaHCO3, 4.75 KCl, 1.2 KH2PO4, 1.2 MgSO4, 2.0 CaCl2, and 10 glucose (gassed with 95/5% O2/CO2). Hearts are bathed in a buffer-filled perfusion chamber maintained at 37° C. for the duration of the experiments. Following the initiation of perfusion, hearts are instrumented for the simultaneous observation of mechanical and electrical function. A buffer-filled latex balloon (size 5, Harvard Apparatus, Holliston, Mass., USA), which is calibrated at the beginning of each day using a digital manometer, is inserted into the left ventricle (via the mitral valve) for the measurement of left ventricular developed pressure (LVDP), with balloon volume adjusted to establish a diastolic pressure of 5-8 mm Hg. Three electrodes are placed into the buffer filled perfusion chamber for the measurement of the volume-conducted electrocardiogram (ECG). Coronary flow rates are monitored constantly with a flow probe (Transconic Systems, Ithaca, N.Y., USA) connected in series with the perfusion line, and normalized to heart wet weight (in grams) at the end of each experiment. All physiological parameters are continuously monitored and stored on a personal computer using commercially available software (Chart, AD Instruments, Colorado Springs, Colo., USA). Heart rate is calculated using the LVDP trace, and maximal rates of contraction(+dP/dt) and relaxation (−dP/dt) are calculated using the derivative of the LVDP trace.
Prior to the initiation of ischemia/reperfusion, the excised rat hearts are bathed in buffer containing an experimental peptide at a concentration of 1 μM or buffer alone (control) for two hours. The experimental peptide is selected from D-Arg-D-Dmt-D-Lys-L-Phe-NH2 (SBT-46), D-Arg-L-DMT-L-Ala-L-Phe-NH2 (SBT-68), (Ac)-D-Arg-L-DMT-L-Lys-L-Phe-NH2 (SBT-85), D-Arg-L-Dmt-L-His-L-Phe-NH2(SBT-100), D-Arg-L-DMT-L-Orn-L-Phe-NH2 (SBT-102), D-Orn-L-DMT-L-Lys-L-Phe-NH2(SBT-131), D-(Amidine)Arg(propylamine)-L-DMT-L-Lys-L-Phe-NH2(SBT-140), and D-Arg(butylamidine analog)-L-DMT-L-Lys-L-Phe-NH2 (SBT-149). Following a 10 minute baseline period, ischemia/reperfusion is initiated. Hearts are exposed to global no-flow ischemia by stopping perfusion for 20 min. At the end of the index ischemia, static buffer from the perfusion lines is washed out (via an accessory port proximal to the aortic cannula), and reperfusion ensues for 2 hours with Krebs buffer. At the end of reperfusion, the left ventricle is dissected, sliced into 5 mm-thick slices, incubated in 1% triphenyltetrazolium chloride (TTC) for 10 min (37° C.) and digitally photographed for subsequent infarct size analysis. Infarct size is expressed as a percentage of the left ventricle (% area at risk (AAR))(calculated using ImageJ software, NIH, Bethesda, Md., USA).

[2] = test system: Excised Sprague-Dawley rat hearts; test: Modified Langendorff rat heart model, ischemia/reperfusion with peptide in the reperfusion buffer (Example 1); details: 1 μM peptide in Krebs buffer during 2 hours reperfusion after 20 min global no-flow ischemia; compared to controls
Method: The Langendorff rodent heart model is widely employed in studies of myocardial function and responses to injury (e.g., ischemia). For whole-heart studies, male Sprague-Dawley rats (7-9 weeks old) were injected with pentobarbital (35 mg/kg, ip injection) and hearts were excised with midline thoracotomy. The aortas were secured around a cannula of a modified Langendorff apparatus and retrogradely perfused (perfusion pressure of 75 mm Hg) with a modified Krebs-Henseleit buffer containing (in mM): 118 NaCl, 24 NaHCO3, 4.75 KCl, 1.2 KH2PO4, 1.2 MgSO4, 2.0 CaCl2, and 10 glucose (gassed with 95/5% O2/CO2). Hearts were bathed in a buffer-filled perfusion chamber maintained at 37° C. for the duration of the experiments. Following the initiation of perfusion, hearts were instrumented for the simultaneous observation of mechanical and electrical function. A buffer-filled latex balloon (size 5, Harvard Apparatus, Holliston, Mass., USA), calibrated at the beginning of each day using a digital manometer, was inserted into the left ventricle (via the mitral valve) for the measurement of left ventricular developed pressure (LVDP), with balloon volume adjusted to establish a diastolic pressure of 5-8 mm Hg. Three electrodes were placed into the buffer filled perfusion chamber for the measurement of the volume-conducted electrocardiogram (ECG). Coronary flow rates were monitored constantly with a flow probe (Transconic Systems, Ithaca, N.Y., USA) connected in series with the perfusion line, and normalized to heart wet weight (in grams) at the end of each experiment. All physiological parameters were continuously monitored and stored on a personal computer using commercially available software (Chart, AD Instruments, Colorado Springs, Colo., USA). Heart rate was calculated using the LVDP trace, and maximal rates of contraction(+dP/dt) and relaxation (−dP/dt) were calculated using the derivative of the LVDP trace.
Following a 10 minute baseline period, ischemia/reperfusion was initiated. Hearts were exposed to global no-flow ischemia by stopping perfusion for 20 min. At the end of the index ischemia, static buffer from the perfusion lines was washed out (via an accessory port proximal to the aortic cannula), and reperfusion ensued for 2 hours either with Krebs buffer alone (control) or Krebs buffer containing an experimental peptide at a concentration of 1 μM. Peptides tested included D-Arg-D-Dmt-D-Lys-L-Phe-NH2 (SBT-46), D-Arg-L-DMT-L-Ala-L-Phe-NH2 (SBT-68), (Ac)-D-Arg-L-DMT-L-Lys-L-Phe-NH2 (SBT-85), D-Arg-L-Dmt-L-His-L-Phe-NH2(SBT-100), D-Arg-L-DMT-L-Orn-L-Phe-NH2 (SBT-102), D-Orn-L-DMT-L-Lys-L-Phe-NH2(SBT-131), D-(Amidine)Arg(propylamine)-L-DMT-L-Lys-L-Phe-NH2 (SBT-140), and D-Arg(butylamidine analog)-L-DMT-L-Lys-L-Phe-NH2(SBT-149). At the end of reperfusion, the left ventricle was dissected, sliced into 5 mm-thick slices, incubated in 1% triphenyltetrazolium chloride (TTC) for 10 min (37° C.) and digitally photographed for subsequent infarct size analysis. Infarct size was expressed as a percentage of the left ventricle (% area at risk (AAR))(calculated using ImageJ software, NIH, Bethesda, Md., USA).

Cc1cc(O)cc(C)c1C[C@H](NC(=O)[C@H](N)CCCCC(=N)N)C(=O)N[C@@H](CCCCN)C(=O)N[C@@H](Cc1ccccc1)C(N)=O [SBT-149, D-Arg(butylamidine analog)-L-DMT-L-Lys-L-Phe-NH2]
LVDP [1]: increased LVDP | infarct size [1]: reduced infarct size | maximal rates of contraction (+dP/dt) [1]: increased maximal rates of contraction | maximal rates of relaxation (−dP/dt) [1]: increased maximal rates of relaxation | attenuation of cardiac ischemia injury and ischemia-reperfusion injury [2]: able to attenuate cardiac ischemia injury and ischemia-reperfusion injury; also recorded: attenuation of cardiac ischemia-reperfusion injury | infarct size expressed as a percentage of area at risk (AAR) [2]: reduced infarct size | left ventricular developed pressure (LVDP) [2]: increased LVDP | maximal rates of contraction (+dP/dt) [2]: increased maximal rates of contraction | maximal rates of relaxation (−dP/dt) [2]: increased maximal rates of relaxation
